Entries after “also recorded” stand apart in the source; their conditions may differ.
Key:
HBA1 locus in PSCs = experiment: RNP/AAV6 gene targeting / gene replacement at HBA1 locus in PSCs; assay type: cell-based, human; details: 0.5 μM
Protocol: Gene targeting efficiency was measured by droplet digital PCR (ddPCR) and flow cytometry (for GFP) to measure the allelic targeting efficiency (FIG. 2B) and percentage of targeted cells (FIG. 2C) respectively. […] The treatment was carried out for 24 hours post gene targeting and the efficiency was calculated 1 week post gene targeting using ddPCR analysis.
First, we tested the treatment for editing the sickle cell disease (SCD) and cystic fibrosis (CF) mutations at HBB and CFTR loci respectively using the previously described Cas9 RNP and AAV6 donor reagents in WT PSC^71-73 (FIG. 19a-d).
PSC culture and genome editing. […] For each nucleofection, RNP complex was prepared with 5 μg of Cas9 protein and 2 μg of gRNA and incubated for 15 mins at room temperature. PSCs were dissociated into single cells using Accutase (Innovative Cell Technologies, cat: AT104). […] Resuspended cells were added to one well of a 16-well Nucleocuvette Strip (Lonza) and nucleofection was performed in the 4D nucleofector (Lonza) using the program, CA137. Nucleofected PSCs were plated in mTeSR1 medium supplemented with 10 μM of Y27632 at a density of 100,000 cells per well in 48-well plate, AAV6 vector and DNA-PKcs inhibitors were added to the medium at indicated concentrations. […] From the following day, PSCs were cultured in mTeSR1 without Y27632. Gene targeting efficiency was analyzed at 4-6 days post-editing.
ddPCR analysis of targeted integration. Gene targeting efficiency for the knock-in of multi-kb sequences was measured through digital droplet PCR (ddPCR) analysis. […] After PCR, the droplets were analyzed using the QX200 Droplet Digital PCR reader (Biorad) and Quantasoft software was used to determine the number of copies of the target and reference DNA in the droplets. The allelic gene targeting efficiency was calculated as the percentage of target DNA copies relative to that of the reference. […]
ICE analysis for quantification of gene editing. […] Following PCR, the amplicons were detected on agarose gel and purified from the gel using GeneJet Gel Extraction Kit (Thermo Fisher Scientific, cat: K0692). […]

PI3K family of kinases = experiment: Western blot, phosphorylation of AKT (Ser473) by PI3K family kinases in PSC; assay type: cell-based, human; details: 2 h
[1] = tested on: LT-HSC and MPP populations; experiment: Gene targeting at CCR5 locus in FACS sorted LT-HSC and MPP; assay type: cell-based, human; details: flow cytometry for GFP; 0.5 μM
HBB locus in HSPCs = experiment: Editing of SCD mutation at HBB locus in HSPCs (AAV6 or ssODN donor); assay type: cell-based, human
Source text: (§1) ICE analysis for quantification of gene editing.
CD34+ HSPC culture and genome editing.

[2] = tested on: TRAC gene locus in T cells; details: 0.5 μM; AAV6 MOI 1250 and 2500
Source text: (FIG. 34d). Next, we tested the effect of compound treatment when titrating down the AAV6 donor amounts for gene targeting at the CCR5 locus. […] For this, we assessed the CD19-CAR knock-in at the TRAC gene locus in T cells using a previously reported gene editing strategy^87 (FIG. 14c).

CFTR locus in HBECs = experiment: RNP/AAV6 gene targeting at CFTR locus in HBECs; assay type: cell-based, human; details: 0.5 μM
Protocol: as §1
Cell culture and genome editing of HBECs. Human bronchial epithelial cells (HBECs) were obtained from Lonza Inc., the Primary Airway Cell Biobank at McGill University, the Cystic Fibrosis Foundation Cell Bank or the University of North Carolina. […] Cells were cultured at 37° C. in 5% 02 and 5% CO2.

human primary cells = experiment: Gene targeting across different genomic loci and primary cell types (summary statements); assay type: cell-based; details: in some examples
Source text: Nuclease-based genome editing can result in either site-specific insertions/deletions (INDELs) or targeted integrations depending on which pathway of natural DNA double-strand break repair is harnessed: non-homologous end-joining (NHEJ), microhomology mediated end-joining (MMEJ) or homology-directed repair (HDR).

How did the “effect on gene targeting vs untreated” value (HBA1 locus in PSCs) turn out when `Cc1cc2ncnn2cc1Nc1ncc2c(n1)n(C1CCOCC1)c(=O)n2C` [AZD7648, 7-methyl-2-((7-methyl-[1,2,4]triazolo[l,5-a]pyridin-6-yl)amino)-9-(tetrahydro-2H-pyran-4-yl)-7,9-dihydro-8H-purin-8-one] was run?
The value was “enhanced the gene targeting significantly”.

And the “phosphorylation of AKT (Ser473)” value (PI3K family of kinases)?
Its value is “did not affect the phosphorylation of AKT”.

And the “improvement of frequency of gene targeted cells” value [1]?
Its value is “more than 2.5 fold”.

And the “INDELs after gene targeting” value (HBB locus in HSPCs; AAV6 donor, 0.5 μM)?
The value was “almost no INDELs; also recorded: nearly INDEL-free levels”.

What about the gene targeting frequency (HBB locus in HSPCs; ssODN donor […], AZD7648 0.5 μM, untreated 49%) of the same molecule?
The gene targeting frequency was 65%.

What about the “increase in frequency of CD19-CAR+ T cells vs untreated” value [2] of the same molecule?
The value was 1.4 fold.

What about the “alleles with INDELs vs untreated” value (CFTR locus in HBECs; CF patient derived HBECs) of the same molecule?
Its value is “much lower frequency of alleles with INDELs”.

What about the “improvement of frequency of gene targeted (GFP+) cells” value (CFTR locus in HBECs; exon 1 knock-in) of the same molecule?
Its value is “around 2 fold”.

What about the “increase in HDR” value (human primary cells) of the same molecule?
The value was “up to 50 fold”.
